# Test results published in US20170304466A1, “AAV-Based Gene Therapy” (Arthrogen B.V., priority 2014, published 2017).
# Like-named read-outs stand apart in the source and are kept apart here.
# What was measured:
# healthy mice [1] = assay: Intra-articular rAAV2 luciferase expression, in vivo imaging in healthy mice; conditions: AAV2-CMV-Fluc 1.26e10 vg/joint, compared with vector alone, up to week 4
# Experimental: (§1) In brief, the plasmid encodes the Fluc gene under the control of the CMV promoter and a human growth hormone polyadenylation signal. […] The genome containing vector and empty AAV capsid particles were purified by combined chromatography and cesium chloride density gradient centrifugation. […] Vector titers were determined by qPCR and expressed as vector genomes/ml (vg/ml).
# Luciferase expression was measured at different time points after vector administration, from day 3 up till 6 months in different experiments. D-luciferin potassium-salt substrate (Caliper Life Sciences, Hopkinton, Mass., USA) was injected intraperitoneally (150 mg/kg of body weight, in a volume of approximately 200 μl). Photon counts were acquired 10 minutes after substrate administration for 5 minutes using a cooled charge-coupled device (CCD) camera system (Photon Imager, Biospace Lab, Paris, France). […] Image processing and signal intensity quantification and analysis were performed using M3 Vision (Biospace Lab). […] The number of photons emitted per second per square centimetre per steradian was calculated as a measure of luciferase activity.
# To test this hypothesis, we performed an experiment were we evaluated if triamcinolone and empty capsid could enhance gene expression from a serotype that is very different from AAV5, that being AAV2. […] Luciferase expression was monitored by live animal IVIS imaging.
# spleen = assay: Spleen size after triamcinolone in arthritic mice; type: in vivo
# Experimental: FIG. 5: Effect of triamcinolone on spleen size and cell populations in different tissues. Arthritis was induced in several groups (n=5 per group), triamcinolone (5 mg/kg) or saline as control was administered intramuscularly on day 22 (2 days before vector administration). […]
# Immunization, intra-articular injections and in vivo imaging were performed under isoflurane anaesthesia (3% isoflurane and oxygen). At the end of the experiments, animals were sacrificed by cardiac puncture under isoflurane anaesthesia, followed by cervical dislocation, after which hind paws, blood, lymph nodes and spleen were collected. The studies were reviewed and approved by the animal care and use committee of the University of Amsterdam (Amsterdam, The Netherlands; Permit Numbers: ART 102881, ART 102656, ART 102793, ART 102948, and ART 103021) and carried out in strict accordance with the recommendations in the Dutch Law on Animal Welfare (Wet op Dierproeven). Animals were maintained under pathogen-free conditions in the animal facility of the University of Amsterdam.
# mice with CIA [2] = assay: Arthritis activity clinical score in CIA mice; type: in vivo
# Experimental: Collagen induced arthritis (CIA) was induced by means of an intradermal injection of 100 μl collagen type II (2 mg/ml), diluted 1:1 in CFA (mineral oil and heat-killed M. Tuberculosis 2 mg/ml) (Chondrex Inc., Redmond, Wash., USA). On day 21 a booster injection was administered intraperitoneally containing 100 μg collagen type II dissolved in 100 μl NaCl.
# Arthritis activity was scored 3-weekly from day 18 on with a semi-quantitative scoring system, each mouse paw was analyzed separately (0—normal; 1—swelling and/or erythema of 1 joint; 2—swelling in multiple joints; 3—swelling of all joints; 4—swelling of whole paw and at least one of the following symptoms: ankylosis, loss of function).
# mice with CIA [3] = type: in vivo
# Experimental: In brief, the plasmid encodes the Fluc gene under the control of the CMV promoter and a human growth hormone polyadenylation signal. The transgene cassette is flanked by AAV-2 inverted terminal repeats and is packaged in capsid from AAV5.[Gao G P et al; PNAS 2002; 11854] The genome containing vector and empty AAV capsid particles were purified by combined chromatography and cesium chloride density gradient centrifugation. […] Vector titers were determined by qPCR and expressed as vector genomes/ml (vg/ml).
# Intra-articular rAAV5 expression was investigated in male DBA mice (8-12 week old; Harlan Sprague Dawley, Horst, The Netherlands) in 5 animal experiments. Mice were injected with rAAV5.CMV.Fluc in both knee joints (with or without injection of ankle joints) and monitored periodically for luciferase expression (from 5 days up till 6 months). For animals without arthritis the vector was administered on day 1, in arthritic animals the vector was injected on day 17 or 24 after immunization, at the onset of disease. Animals received between 1.26e10 and 1.5e10 vg per knee joint (in a volume of 5 μl) and 0.75e10 vg per ankle joint (in a volume of 2.5 μl). Empty capsids were co-administered with the genome containing particles in several groups in a 5:1 or 20:1 ratio (ratio expressed as empty capsids to genome containing vectors). Groups consisted of 5 to 18 animals.
# Two days prior to vector administration, triamcinolone was administered intra-muscularly (i.m.), similar to the use in RA patients. […] Taking into account the faster metabolic rate in mice (factor 12.5), a dose of 5 mg/kg bodyweight was used, administered in a volume of 50 μl. Control groups received an i.m. injection with 50 μl NaCl. […]
# (§2) Luciferase expression was measured at different time points after vector administration, from day 3 up till 6 months in different experiments. […] Image processing and signal intensity quantification and analysis were performed using M3 Vision (Biospace Lab). […] The number of photons emitted per second per square centimetre per steradian was calculated as a measure of luciferase activity.
# Luminescence over time was investigated using generalized estimating equations (GEE) to allow for longitudinal analysis (including all available longitudinal data and allowing unequal numbers of repeated measurements) (Twisk (2004) Eur. J. Epidemiol. 19(8):769-776). All other statistics were analyzed using Graphpad Prism (Ja Jolla, Calif., USA). […]
# [4] = tested on: macrophages (F4/80+, CD68+); assay: FLOW cytometry of macrophages in spleen and synovium of arthritic mice; type: in vivo; conditions: 48 hrs after triamcinolone 5 mg/kg i.m.
# Experimental: Macrophages in spleen and synovium were analyzed by FLOW cytometry. Briefly, synovial cells were extracted by scraping cells from the joint followed by digestion with Liberase/DNase for 30 min at 37° C. Cells were then washed (PBS/EDTA) and passed through a cell strainer. Synovial cells were centrifuged (1400 rpm, 5 min, 4° C.) and resuspended in FACS buffer (PBS+1% BSA). Due to the low number of cells in the synovium, all animals from each group were pooled. Spleen cells were isolated by mechanical disruption and flushing cells through a cell strainer. Red blood cells were lysed by addition of RBC lysis buffer (Life Technologies), followed by 10 min incubation on ice. Cells were centrifuged and resuspended in FACS buffer. Cells (pooled synovium or splenocytes (1e6 cells) were blocked with 5% normal mouse serum (Sanquin) and stained with F4/80-APC and CD68-FITC labeled antibodies (BD Biosciences). Data was acquired on a BD Canto2 and was analyzed using FlowJo software (FLOWJO LLC, Ashland Oreg.)
# To further investigate the mechanism of action behind the effect of triamcinolone on transgene expression, an ex vivo analysis was carried out on synovial tissue and splenocytes to assess the effect on the numbers and activity of macrophages and other cell types. […]
# healthy mice [5] = assay: Intra-articular rAAV5 luciferase expression, in vivo imaging in healthy mice; conditions: AAV5-CMV-Fluc 1.26e10 vg/joint, compared with vector alone, up to week 8
# Experimental: as §1
# Intra-articular rAAV5 expression was investigated in male DBA mice (8-12 week old; Harlan Sprague Dawley, Horst, The Netherlands) in 5 animal experiments. Mice were injected with rAAV5.CMV.Fluc in both knee joints (with or without injection of ankle joints) and monitored periodically for luciferase expression (from 5 days up till 6 months). […] Empty capsids were co-administered with the genome containing particles in several groups in a 5:1 or 20:1 ratio (ratio expressed as empty capsids to genome containing vectors). […]
# as §2
# air pouch membrane = assay: Luciferase expression in air pouch synovial inflammation (APSI) model; type: in vivo, mice; conditions: triamcinolone 5 mg/kg i.m. on d9, vector 3.16e11 vg on d11; assay d30
# Experimental: Air pouches were formed as previously described (O'Boyle et al. (2009) FASEB J. 23 (11): 3906-3916). Briefly, 3 mls of air was injected subcutaneously into the back of each animal. The air pouches were kept inflated by re-injection of air as necessary. rAAV5.CMV.Fluc vector (3.16e11 vg) was administered into the pouch in a volume of 1 ml on d0, d11, or d18 post air pouch formation. For triamcinolone treated animals, triamcinolone was administered (5 mg/kg) by i.m. injection 2 days prior to vector administration on d11. On d30, mice were sacrificed and air pouch membrane was removed and snap frozen. Frozen air pouch tissue was homogenized in passive lysis buffer (Promega) and luciferase was measured by standard luciferase assay (Promega).
# The air pouch synovial inflammation (APSI) model was initially developed as a way to model human synovium in a mouse. It involves the injection of air under the skin on the back of a mouse. After 6-7 days, a lining membrane will form around this air pouch. This lining is very similar to the synovial lining that forms around the joint cavity, consisting primarily of fibroblast like cells and macrophages. […] We hypothesized that perhaps the macrophages lining the air pouch membrane were inhibiting the transduction of the vector (similar to what we have observed in intra-articular injected vector). […]
smiles,measurement,setting,value
C[C@]12C=CC(=O)C=C1CC[C@H]1[C@@H]3C[C@@H](O)[C@](O)(C(=O)CO)[C@@]3(C)C[C@H](O)[C@@]12F [triamcinolone],"intra-articular AAV2 gene expression (luciferase, IVIS)",healthy mice [1],increased gene expression
same,spleen weight,spleen; 3 days after triamcinolone/saline administration,significantly reduced
same,decrease of absolute volume of spleen,"spleen; after triamcinolone 5 mg/kg i.m., at d25, p=0.0011",4 fold
same,arthritis activity (clinical score),"mice with CIA [2]; Example 2, up to 4 weeks",trend towards reduced arthritis activity
same,arthritis activity (clinical score),"mice with CIA [2]; Example 3, up till week 4",arthritis activity was lower
same,rAAV5.CMV.Fluc expression (luminescence),"mice with CIA [3]; agent given 48 hours before i.a. vector (triamcinolone 5 mg/kg i.m.; liposomal clodronate 5 μl/g i.v.), over 4 weeks",improved rAAV5.CMV.Fluc expression
same,"luciferase expression (generalized estimating equations), compound added separately",mice with CIA [3]; followed 6 months,trend towards increased expression (not significant)
same,gene expression (luciferase),mice with CIA [3]; triamcinolone 5 mg/kg locally (i.a.) 2 days prior to i.a. vector + empty capsids 5:1,enhancement of gene expression
same,gene expression (luciferase),mice with CIA [3]; triamcinolone 5 mg/kg systemically (i.m.) 2 days prior to i.a. vector + empty capsids 5:1,enhancement of gene expression
same,"relative percentage of macrophages (CD68+, F4-80+) in the spleen",[4]; compared with saline,remained similar
same,percentage of macrophages in the synovium,[4]; pooled animals per group,decreased
same,"intra-articular AAV5 gene expression (luciferase, IVIS)",healthy mice [5],increased gene expression
same,luciferase expression in air pouch membrane,air pouch membrane,luciferase expression was only observed
